Source: PMC4554882 (Bioorganic & medicinal chemistry, 2015)
Converted amounts (≈) assume the structure as drawn. Like-named read-outs stand apart in the source and are kept apart here.

Assays:
DU145 (prostate cancer) = details: read-out: GI50 (μM ± SD) DU145, ref [14]; cited from earlier work
tubulin [1] = details: tubulin 1 μM, [3H]colchicine 5 μM, ref [14], cited from earlier work
Aqueous solubility = type: physicochemical; details: pH 7.4, Solubility (μg/mL), mean ± SD of three experiments
[2] = tested on: human tumor cell lines (A549, KB, KBvin, DU145); test: SRB cytotoxicity, HTCL panel as a whole; type: cell-based; details: read-out: GI50 values across the HTCL panel, range over A549, KB
tubulin [3] = test: Inhibition of [3H]colchicine binding to tubulin; details: tubulin 1 μM, [3H]colchicine 5 μM, 10 min at 37 °C
tubulin [4] = test: Tubulin assembly inhibition; type: biochemical

**Q.** Which GI50 (DU145 (prostate cancer)) does the source give for `COc1ccc2c(c1)CCCN2c1nc(Cl)nc2ccccc12` [Compound 1a] here?
**A.** 0.0015 ± 0.0003 µM

**Q.** And the “Inhibition of colchicine binding % Inhibition ± SD 1 μM” value (tubulin [1]; inhibitor 1 μM)?
**A.** 95 ± 0.7%

**Q.** What about the “Inhibition of colchicine binding % Inhibition ± SD 5 μM” value (tubulin [1]; inhibitor 5 μM) of the same molecule?
**A.** 99 ± 0.6%

**Q.** Which solubility at 4 h (Aqueous solubility) does the source give for `COc1ccc2c(c1)CCCN2c1nc(NCCCO)nc2ccccc12` [Compound 4a, N^1-(2′-(3-Hydroxypropyl)aminoquinazol-4′-yl)-6-methoxy-1,2,3,4-tetrahydro-quinoline] here?
**A.** 75 µg/mL (≈ 206 µM)

**Q.** What about the GI50 [2] of the same molecule?
**A.** 16 to 20 nM

**Q.** With `COc1ccc(/C=C\c2cc(OC)c(OC)c(OC)c2)cc1O` [CA-4, combretastatin A-4] as the molecule, how does the “Inhibition of colchicine binding % Inhibition ± SD 1 μM” value (tubulin [3]; inhibitor 1 μM) read?
**A.** 84 ± 0.3%

**Q.** What about the “Inhibition of colchicine binding % Inhibition ± SD 5 μM” value (tubulin [3]; inhibitor 5 μM) of the same molecule?
**A.** 97 ± 0.4%

**Q.** For `COc1ccc2c(c1)CCCN2c1cccc2cccnc12` [Compound 8d, 6-Methoxy-3,4-dihydro-2H-1,8′-biquinoline], which “inhibitory activity in the assembly assay” value (tubulin [4]) is on record?
**A.** did not display significant inhibitory activity

**Q.** With `COc1ccc2c(c1)CCCN2c1nc(NC2CCCC2)nc2ccccc12` [Compound 4c] as the molecule, how does the GI50 [2] read?
**A.** 140 to 1420 nM
